Test system: sub-mitochondrial particles
Assay: Redox cycling, NADH and NAD(P)H oxidation assays with sub-mitochondrial particles
Type: biochemical
Details: SMPs
Experimental: By contrast, replacing the hydroxyl with chlorine or azide, or methylating the phenol effectively abolishes the cytotoxic activity of Bz-423. […] Such agents accept an electron from MRC enzymes and transfer it back to the chain at point of higher reducing potential. This type of ‘redox cycling’ consumes endogenous reducing equivalents (e.g., glutathione) along with […] nucleotides and results in cell death. To distinguish between these alternatives, it was determined whether Bz-423 redox cycles in the presence of sub-mitochondrial particles using standard NADH and NAD(P)H oxidation assays.

CN1C(=O)C(Cc2ccc3ccccc3c2)N=C(c2ccc(O)cc2)c2cc(Cl)ccc21 (stereo not shown) [Bz-423]
Redox cycling (substrate oxidation): does not lead to substrate oxidation

Source: patent US7144880B2, “Compositions relating to novel compounds and targets thereof” (Regents of the University of Michigan, priority 2003, dated 2006)
